This assay addresses T1, human NK3 receptor (Homo sapiens, UniProt P29371).
T1 construct: expressed in transfected cells; host or cells: HEK293 cells, transiently transfected; membranes
T1 sequence (P29371 1-465): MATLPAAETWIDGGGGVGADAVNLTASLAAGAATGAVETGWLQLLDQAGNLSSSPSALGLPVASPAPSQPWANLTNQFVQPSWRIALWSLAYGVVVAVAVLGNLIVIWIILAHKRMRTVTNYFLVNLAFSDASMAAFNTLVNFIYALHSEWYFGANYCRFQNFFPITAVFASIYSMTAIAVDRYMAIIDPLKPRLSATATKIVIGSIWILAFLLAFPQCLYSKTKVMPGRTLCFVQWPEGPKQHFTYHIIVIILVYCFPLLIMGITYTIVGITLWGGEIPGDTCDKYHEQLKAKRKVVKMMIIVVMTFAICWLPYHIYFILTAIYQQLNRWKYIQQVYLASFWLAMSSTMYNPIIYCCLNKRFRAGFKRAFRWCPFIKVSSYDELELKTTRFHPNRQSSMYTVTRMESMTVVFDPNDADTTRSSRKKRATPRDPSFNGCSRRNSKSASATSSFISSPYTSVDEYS
Nature of the assay: [3H]SR142801 competition binding assay. As to the method:
[^3H]SR142801 Competition Binding Assay
hNK3 receptor binding experiment were performed using [^3H]SR142801 (Catalog No. TRK1035, specific activity: 74.0 Ci/mmol, Amersham, GE Healthcare UK limited, Buckinghamshire, UK) and membrane isolated from HEK293 cells transiently expressing recombinant human NK3 receptor. After thawing, the membrane homogenates were centrifuged at 48,000×g for 10 min at 4° C., the pellets were resuspended in the 50 mM Tris-HCl, 4 mM MnCl2, 1 μM phosphoramidon, 0.1% BSA binding buffer at pH 7.4 to a final assay concentration of 5 μg protein/well. For inhibition experiments, membranes were incubated with [^3H]SR142801 at a concentration equal to KD value of radioligand and 10 concentrations of the inhibitory compound (0.0003-10 μM) (in a total reaction volume of 500 μl) for 75 min at room temperature (RT). At the end of the incubation, membranes were filtered onto unitfilter (96-well white microplate with bonded GF/C filter preincubated 1 h in 0.3% PEI+0.3% BSA, Packard BioScience, Meriden, Conn.) with a Filtermate 196 harvester (Packard BioScience) and washed 4 times with ice-cold 50 mM Tris-HCl, pH 7.4 buffer. Nonspecific binding was measured in the presence of 10 μM SB222200 for both radioligands. The radioactivity on the filter was counted (5 min) on a Packard Top-count microplate scintillation counter with quenching correction after addition of 45 μl of microscint 40 (Canberra Packard S.A., Zürich, Switzerland) and shaking for 1 h. Inhibition curves were fitted according to the Hill equation: y=100/(1+(x/IC50)^nH), where nH=slope factor using Excel-fit 4 software (Microsoft). IC50 values were derived from the inhibition curve and the affinity constant (Ki) values were calculated using the Cheng-Prussoff equation Ki=IC50/(1+[L]/KD) where [L] is the concentration of radioligand and KD is its dissociation constant at the receptor, derived from the saturation isotherm. All experiments were performed in duplicate and the mean±standard error (SEM) of the individual Ki values was calculated.

Setting [1] is: hNK3 Ki, [3H]SR142801 displacement, membranes of HEK293 cells transiently expressing recombinant human NK3 receptor.

Counter-ions that a name gives are not always drawn. Like-named read-outs stand apart in the source and are kept apart here.

For orientation: Ki means a measure of affinity in units of concentration, obtained from inhibition or displacement.

Turning to `CN(Cc1cccc(C(F)(F)F)c1)C(=O)C(CCN1CCC2(CC1)OC(=O)N(C)c1ccc(F)cc12)c1ccc(Cl)c(Cl)c1` (centres unmarked) [Example 104, 2-(3,4-dichlorophenyl)-4-(6-fluoro-1-methyl-2-oxo-1,2-dihydro-1′H-spiro[3,1-benzoxazine-4,4′-piperidin]-1′-yl)-N-methyl-N-[3-(trifluoromethyl)benzyl]butanamide], under setting [1], the Ki is 1.6 nM.
Same read-out and setting: with `CN(Cc1ccc(Cl)cc1)C(=O)C(CCCN1CCC2(CC1)OC(=O)Nc1ccc(F)cc12)c1ccc(Cl)c(Cl)c1` (centres unmarked) [Example 120, N-(4-chlorobenzyl)-2-(3,4-dichlorophenyl)-5-(6-fluoro-2-oxo-1,2-dihydro-1′H-spiro[3,1-benzoxazine-4,4′-piperidin]-1′-yl)-N-methylpentanamide] the figure was 46.3 nM; with `CN(Cc1ccc(F)cc1)C(=O)C(CCN1CCC2(CC1)OC(=O)Nc1ccc(F)cc12)c1ccc(F)cc1` (centres unmarked) [Example 59, N-(4-fluorobenzyl)-4-(6-fluoro-2-oxo-1,2-dihydro-1′H-spiro[3,1-benzoxazine-4,4′-piperidin]-1′-yl)-2-(4-fluorophenyl)-N-methylbutanamide], 48.9 nM.
Consider `Cc1ccc(CN(C)C(=O)C(CCN2CCC3(CC2)OC(=O)N(C)c2ccc(F)cc23)c2ccc(Cl)c(Cl)c2)cc1` (centres unmarked) [Example 102, 2-(3,4-dichlorophenyl)-4-(6-fluoro-1-methyl-2-oxo-1,2-dihydro-1′H-spiro[3,1-benzoxazine-4,4′-piperidin]-1′-yl)-N-methyl-N-(4-methylbenzyl)butanamide], for which, for the setting “[3H]SR142801 displacement, membranes of HEK293 cells transiently expressing recombinant human NK3 receptor, read-out: hNK3 Ki”, the Ki came to 2.1 nM.
With `CN(Cc1ccc(F)cc1)C(=O)C(CCN1CCC2(CC1)OC(=O)Nc1ccc(F)cc12)c1ccc(Cl)c(Cl)c1` (centres unmarked) [Example 80, 2-(3,4-dichlorophenyl)-N-(4-fluorobenzyl)-4-(6-fluoro-2-oxo-1,2-dihydro-1′H-spiro[3,1-benzoxazine-4,4′-piperidin]-1′-yl)-N-methylbutanamide], the Ki under setting [1] is 4.4 nM.
On the same count and under the same terms, for `CCN(Cc1ccccc1)C(=O)C(CCN1CCC2(CC1)OC(=O)Nc1ccc(F)cc12)c1ccc(Cl)c(Cl)c1` (centres unmarked) [Example 6, N-benzyl-2-(3,4-dichlorophenyl)-N-ethyl-4-(6-fluoro-2-oxo-1,2-dihydro-1′H-spiro[3,1-benzoxazine-4,4′-piperidin]-1′-yl)butanamide] the value was 62.8 nM; for `O=C1Nc2ccc(F)cc2C2(CCN(CCC(C(=O)NCc3ccc(Cl)cc3)c3ccc(Cl)c(Cl)c3)CC2)O1` (centres unmarked) [Example 8, N-(4-chlorobenzyl)-2-(3,4-dichlorophenyl)-4-(6-fluoro-2-oxo-1,2-dihydro-1′H-spiro[3,1-benzoxazine-4,4′-piperidin]-1′-yl)butanamide], 17 nM.
Consider `CN(Cc1ccc(Cl)cc1)C(=O)[C@H](CCN1CCC2(CC1)OC(=O)N(C)c1ccc(F)cc12)c1ccc(Cl)c(Cl)c1` [Example 147, (2R)-N-(4-chlorobenzyl)-2-(3,4-dichlorophenyl)-4-(6-fluoro-1-methyl-2-oxo-1,2-dihydro-1′H-spiro[3,1-benzoxazine-4,4′-piperidin]-1′-yl)-N-methylbutanamide], for which the Ki was determined as 1.8 nM.
With `CN(Cc1cccc(Cl)c1)C(=O)C(CCN1CCC2(CC1)OC(=O)Nc1ccc(F)cc12)c1ccc(Cl)c(Cl)c1` (centres unmarked) [Example 19, N-(3-chlorobenzyl)-2-(3,4-dichlorophenyl)-4-(6-fluoro-2-oxo-1,2-dihydro-1′H-spiro[3,1-benzoxazine-4,4′-piperidin]-1′-yl)-N-methylbutanamide], under setting [1], the Ki amounted to 5.2 nM.
Still for that read-out and setting: with `CN(Cc1ccccc1)C(=O)C(CCN1CCC2(CC1)OC(=O)Nc1ccc(F)cc12)c1ccc(Cl)c(Cl)c1` (centres unmarked) [Example 1, N-benzyl-2-(3,4-dichlorophenyl)-4-(6-fluoro-2-oxo-1,2-dihydro-1′H-spiro[3,1-benzoxazine-4,4′-piperidin]-1′-yl)-N-methylbutanamide hydrochloride] the figure was 11.2 nM.
On the same count and under the same terms, for `CN(Cc1ccc(C(F)(F)F)cc1)C(=O)C(CCN1CCC2(CC1)OC(=O)Nc1ccc(F)cc12)c1ccc(Cl)c(Cl)c1` (centres unmarked) [Example 68, 2-(3,4-dichlorophenyl)-4-(6-fluoro-2-oxo-1,2-dihydro-1′H-spiro[3,1-benzoxazine-4,4′-piperidin]-1′-yl)-N-methyl-N-[4-(trifluoromethyl)benzyl]butanamide] the value was 1.4 nM.
Regarding `Cc1ccc(CN(C)C(=O)C(CCN2CCC3(CC2)OC(=O)Nc2ccc(F)cc23)c2ccc(Cl)c(Cl)c2)cc1` (centres unmarked) [Example 77, 2-(3,4-dichlorophenyl)-4-(6-fluoro-2-oxo-1,2-dihydro-1′H-spiro[3,1-benzoxazine-4,4′-piperidin]-1′-yl)-N-methyl-N-(4-methylbenzyl)butanamide], the Ki under setting [1] amounted to 4.6 nM.
On the same count and under the same terms, with `CN(Cc1ccccc1)C(=O)C(CCN1CCC2(CC1)OC(=O)N(C)c1ccc(F)cc12)c1ccc(Cl)c(Cl)c1` (centres unmarked) [Example 89, N-benzyl-2-(3,4-dichlorophenyl)-4-(6-fluoro-1-methyl-2-oxo-1,2-dihydro-1′H-spiro[3,1-benzoxazine-4,4′-piperidin]-1′-yl)-N-methyl-butanamide] the figure was 0.8 nM.
On the same count and under the same terms, for `COc1ccc(CN(C)C(=O)C(CCN2CCC3(CC2)OC(=O)Nc2ccc(F)cc23)c2ccc(Cl)c(Cl)c2)cc1F` (centres unmarked) [Example 74, 2-(3,4-dichlorophenyl)-N-(3-fluoro-4-methoxybenzyl)-4-(6-fluoro-2-oxo-1,2-dihydro-1′H-spiro[3,1-benzoxazine-4,4′-piperidin]-1′-yl)-N-methylbutanamide] the value was 5.5 nM; for `CN1C(=O)OC2(CCN(CCC(C(=O)NCc3ccc(OC(F)(F)F)cc3)c3ccc(Cl)c(Cl)c3)CC2)c2cc(F)ccc21` (centres unmarked) [Example 110, 2-(3,4-dichlorophenyl)-4-(6-fluoro-1-methyl-2-oxo-1,2-dihydro-1′H-spiro[3,1-benzoxazine-4,4′-piperidin]-1′-yl)-N-[4-(trifluoromethoxy)benzyl]butanamide], 3.2 nM; for `CN(Cc1ccc(C(F)(F)F)cc1)C(=O)C(CCN1CCC2(CC1)OC(=O)Nc1ccc(F)cc12)c1ccc(F)cc1` (centres unmarked) [Example 51, 4-(6-fluoro-2-oxo-1,2-dihydro-1′H-spiro[3,1-benzoxazine-4,4′-piperidin]-1′-yl)-2-(4-fluorophenyl)-N-methyl-N-[4-(trifluoromethyl)benzyl]butanamide], 32.2 nM.
`CN1C(=O)OC2(CCN(CCC(C(=O)N3CCC(F)CC3)c3ccc(Cl)c(Cl)c3)CC2)c2cc(F)ccc21` (centres unmarked) [Example 43, 1′-[3-(3,4-dichlorophenyl)-4-(4-fluropiperidin-1-yl)-4-oxobutyl]-6-fluoro-1-methylspiro[3,1-benzoxazine-4,4′-piperidin]-2(1H)-one] displayed a Ki of 61.9 nM.
As for `CN(Cc1ccc(Cl)cc1)C(=O)C(CCN1CCC2(CC1)OC(=O)Nc1ccc(F)cc12)c1ccc(F)cc1` (centres unmarked) [Example 26, N-(4-chlorobenzyl)-4-(6-fluoro-2-oxo-1,2-dihydro-1′H-spiro[3,1-benzoxazine-4,4′-piperidin]-1′-yl)-2-(4-fluorophenyl)-N-methylbutanamide], the Ki under setting [1] amounted to 38.3 nM.
`CN1C(=O)OC2(CCN(CCC(C(=O)NCc3ccccc3)c3ccc(Cl)c(Cl)c3)CC2)c2cc(F)ccc21` (centres unmarked) [Example 32, N-benzyl-2-(3,4-dichlorophenyl)-4-(6-fluoro-1-methyl-2-oxo-1,2-dihydro-1′H-spiro[3,1-benzoxazine-4,4′-piperidin]-1′-yl)-butanamide]: the Ki under setting [1] was 3.9 nM.
The same measure, in the same setting: with `CN1C(=O)OC2(CCN(CCC(C(=O)NCc3ccc(C#N)cc3)c3ccc(Cl)c(Cl)c3)CC2)c2cc(F)ccc21` (centres unmarked) [Example 111, N-(4-cyanobenzyl)-2-(3,4-dichlorophenyl)-4-(6-fluoro-1-methyl-2-oxo-1,2-dihydro-1′H-spiro[3,1-benzoxazine-4,4′-piperidin]-1′-yl)butanamide] the figure was 3.1 nM.

The record behind these values is patent US7470684B2, “Spiropiperidine derivatives as NK3 antagonists” (Hoffmann-La Roche Inc., priority 2007, dated 2008).
